Data from ChEMBL document CHEMBL1156987, “Novel azalides derived from 16-membered macrolides. III. Azalides modified at the C-15 and 4'' positions: Improved antibacterial activities” (Bioorg Med Chem, 2010).
In brackets after ≈: the same amount, converted by molar mass.

How the values were obtained:
[1] = test system: Streptococcus pneumoniae; test: Antibacterial activity against Streptococcus pneumoniae 9 expressing inducible ermB methylase after 20 hrs by agar dilution method; assay type: functional; details: Streptococcus pneumoniae, 9, 20 h
[2] = test system: Streptococcus pneumoniae; test: Antibacterial activity against Streptococcus pneumoniae 8 expressing inducible ermB methylase after 20 hrs by agar dilution method; assay type: functional; details: Streptococcus pneumoniae, 8, 20 h
[3] = test system: Haemophilus influenzae; test: Antibacterial activity against Haemophilus influenzae 3 after 20 hrs by agar dilution method; assay type: functional; details: Haemophilus influenzae, 3, 20 h
[4] = test system: Haemophilus influenzae; test: Antibacterial activity against Haemophilus influenzae 2 after 20 hrs by agar dilution method; assay type: functional; details: Haemophilus influenzae, 2, 20 h
[5] = test system: Streptococcus pneumoniae; test: Antibacterial activity against Streptococcus pneumoniae 10 expressing mefA efflux pump after 20 hrs by agar dilution method; assay type: functional; details: Streptococcus pneumoniae, 10, 20 h
[6] = test system: Streptococcus pneumoniae; test: Antibacterial activity against Streptococcus pneumoniae 6 expressing constitutive ermB methylase and mefA after 20 hrs by agar dilution method; assay type: functional; details: Streptococcus pneumoniae, 6, 20 h
[7] = test system: Streptococcus pyogenes; test: Antibacterial activity against Streptococcus pyogenes Cook after 20 hrs by agar dilution method; assay type: functional
[8] = test system: Staphylococcus aureus; test: Antibacterial activity against Staphylococcus aureus 209P JC1 after 20 hrs by agar dilution method; assay type: functional; details: 209P JC1, 20 h
[9] = test system: Streptococcus pneumoniae; test: Antibacterial activity against Streptococcus pneumoniae 11 expressing mefA efflux pump after 20 hrs by agar dilution method; assay type: functional; details: Streptococcus pneumoniae, 11, 20 h
[10] = test system: Streptococcus pneumoniae; test: Antibacterial activity against Streptococcus pneumoniae 7 expressing constitutive ermB methylase after 20 hrs by agar dilution method; assay type: functional; details: Streptococcus pneumoniae, 7, 20 h
[11] = test system: Streptococcus pyogenes; test: Antibacterial activity against Streptococcus pyogenes 2 expressing constitutive ermB methylase after 20 hrs by agar dilution method; assay type: functional; details: Streptococcus pyogenes, 2, 20 h
[12] = test system: Streptococcus pyogenes; test: Antibacterial activity against Streptococcus pyogenes 3 expressing mefA efflux pump after 20 hrs by agar dilution method; assay type: functional; details: Streptococcus pyogenes, 3, 20 h
[13] = Metabolic stability at human liver S9 fraction assessed as compound remaining after 1 hr; assay type: ADME, subcellular; details: read-out: Stability
[14] = test system: Streptococcus pneumoniae; test: Antibacterial activity against Streptococcus pneumoniae 5 expressing constitutive ermB methylase after 20 hrs by agar dilution method; assay type: functional; details: Streptococcus pneumoniae, 5, 20 h
[15] = test system: Haemophilus influenzae; test: Antibacterial activity against Haemophilus influenzae 1 after 20 hrs by agar dilution method; assay type: functional; details: Haemophilus influenzae, 1, 20 h
[16] = test system: Streptococcus pneumoniae; test: Antibacterial activity against Streptococcus pneumoniae DP1 type 1 after 20 hrs by agar dilution method; assay type: functional; details: DP1 type1, 20 h

| Structure (SMILES) | MIC [1] | MIC [2] | MIC [3] | MIC [4] | MIC [5] | MIC [6] | MIC [7] | MIC [8] | MIC [9] | MIC [10] | MIC [11] | MIC [12] | remaining at 1 h [13] | MIC [14] | MIC [15] | MIC [16] |
| --- | --- | --- | --- | --- | --- | --- | --- | --- | --- | --- | --- | --- | --- | --- | --- | --- |
| CCNC(=O)O[C@H]1[C@H](C)O[C@@H](O[C@H]2[C@H](N(C)C)[C@@H](O)[C@H](O[C@H]3[C@@H](CC=O)C[C@@H](C)[C@@H](O)CN(C)CCC[C@H](C/C=C/c4cnc5ccccc5c4)OC(=O)C[C@@H](OC(=O)CC)[C@@H]3OC)O[C@@H]2C)C[C@@]1(C)OC(=O)CC | 0.25 µg/mL (≈ 0.236 µM) | 0.13 µg/mL (≈ 0.123 µM) | 16 µg/mL (≈ 15.1 µM) | 16 µg/mL (≈ 15.1 µM) | 0.015 µg/mL (≈ 0.0142 µM) | 16 µg/mL (≈ 15.1 µM) | 0.06 µg/mL (≈ 0.0567 µM) | 0.25 µg/mL (≈ 0.236 µM) | 0.015 µg/mL (≈ 0.0142 µM) | 16 µg/mL (≈ 15.1 µM) | 32 µg/mL (≈ 30.3 µM) | 0.13 µg/mL (≈ 0.123 µM) | 79% | 16 µg/mL (≈ 15.1 µM) | 8 µg/mL (≈ 7.57 µM) | 0.015 µg/mL (≈ 0.0142 µM) |
| CCC(=O)O[C@@H]1CC(=O)O[C@H](C)C/C=C/C=C/[C@H](OC(C)=O)[C@H](C)C[C@H](CC=O)[C@H](O[C@@H]2O[C@H](C)[C@@H](O[C@H]3C[C@@](C)(OC(C)=O)[C@@H](OC(=O)CC)[C@H](C)O3)[C@H](N(C)C)[C@H]2O)[C@H]1OC [MIOCAMYCIN] | 8 µg/mL (≈ 8.91 µM) | 4 µg/mL (≈ 4.45 µM) | 16 µg/mL (≈ 17.8 µM) | 16 µg/mL (≈ 17.8 µM) | 0.25 µg/mL (≈ 0.278 µM) | > 128 µg/mL | 0.13 µg/mL (≈ 0.145 µM) | 0.5 µg/mL (≈ 0.557 µM) | 0.25 µg/mL (≈ 0.278 µM) | > 128 µg/mL | > 128 µg/mL | 0.5 µg/mL (≈ 0.557 µM) | 5.1% | > 128 µg/mL | 4 µg/mL (≈ 4.45 µM) | 0.13 µg/mL (≈ 0.145 µM) |
| CCNC(=O)O[C@H]1[C@H](C)O[C@@H](O[C@H]2[C@H](N(C)C)[C@@H](O)[C@H](O[C@H]3[C@@H](CC=O)C[C@@H](C)[C@@H](O)CN(C)CCC[C@H](C/C=C/c4ccc5ccccc5c4)OC(=O)C[C@@H](OC(=O)CC)[C@@H]3OC)O[C@@H]2C)C[C@@]1(C)OC(=O)CC | 0.5 µg/mL (≈ 0.473 µM) | 0.5 µg/mL (≈ 0.473 µM) | 32 µg/mL (≈ 30.3 µM) | 16 µg/mL (≈ 15.1 µM) | 0.13 µg/mL (≈ 0.123 µM) | 32 µg/mL (≈ 30.3 µM) | 0.25 µg/mL (≈ 0.237 µM) | 2 µg/mL (≈ 1.89 µM) | 0.13 µg/mL (≈ 0.123 µM) | 32 µg/mL (≈ 30.3 µM) | 16 µg/mL (≈ 15.1 µM) | 0.5 µg/mL (≈ 0.473 µM) | 82% | 16 µg/mL (≈ 15.1 µM) | 16 µg/mL (≈ 15.1 µM) | 0.06 µg/mL (≈ 0.0568 µM) |
| CC[C@H]1OC(=O)[C@H](C)C(=O)[C@H](C)[C@@H](O[C@@H]2O[C@H](C)C[C@H](N(C)C)[C@H]2O)[C@](C)(OC)C[C@@H](C)C(=O)[C@H](C)[C@H]2N(CCCCn3cnc(-c4cccnc4)c3)C(=O)O[C@]12C [TELITHROMYCIN] | 0.06 µg/mL (≈ 0.0739 µM) | 0.06 µg/mL (≈ 0.0739 µM) | 1 µg/mL (≈ 1.23 µM) | 2 µg/mL (≈ 2.46 µM) | 0.06 µg/mL (≈ 0.0739 µM) | 1 µg/mL (≈ 1.23 µM) | < 0.008 µg/mL | 0.03 µg/mL (≈ 0.0369 µM) | 0.06 µg/mL (≈ 0.0739 µM) | 1 µg/mL (≈ 1.23 µM) | 16 µg/mL (≈ 19.7 µM) | 0.5 µg/mL (≈ 0.616 µM) | 84% | 0.5 µg/mL (≈ 0.616 µM) | 0.5 µg/mL (≈ 0.616 µM) | < 0.008 µg/mL |
| CCC(=O)O[C@@H]1CC(=O)O[C@@H](C/C=C/c2cnc3ccccc3c2)CCCN(C)C[C@H](O)[C@H](C)C[C@H](CC=O)[C@H](O[C@@H]2O[C@H](C)[C@@H](O[C@H]3C[C@@](C)(O)[C@@H](OC(=O)CC)[C@H](C)O3)[C@H](N(C)C)[C@H]2O)[C@H]1OC | 8 µg/mL (≈ 8.11 µM) | 8 µg/mL (≈ 8.11 µM) | 8 µg/mL (≈ 8.11 µM) | 8 µg/mL (≈ 8.11 µM) | 0.06 µg/mL (≈ 0.0608 µM) | 128 µg/mL (≈ 130 µM) | 0.06 µg/mL (≈ 0.0608 µM) | 0.5 µg/mL (≈ 0.507 µM) | 0.03 µg/mL (≈ 0.0304 µM) | 128 µg/mL (≈ 130 µM) | > 128 µg/mL | 0.5 µg/mL (≈ 0.507 µM) | 28% | 128 µg/mL (≈ 130 µM) | 2 µg/mL (≈ 2.03 µM) | 0.015 µg/mL (≈ 0.0152 µM) |
| CCC(=O)O[C@@H]1CC(=O)O[C@@H](C/C=C/c2cnc3ccccc3c2)CCCN(C)C[C@H](O)[C@H](C)C[C@H](CC=O)[C@H](O[C@@H]2O[C@H](C)[C@@H](O[C@H]3C[C@@](C)(OC(=O)CC)[C@@H](OC(=O)NC)[C@H](C)O3)[C@H](N(C)C)[C@H]2O)[C@H]1OC | 0.5 µg/mL (≈ 0.479 µM) | 0.25 µg/mL (≈ 0.24 µM) | 8 µg/mL (≈ 7.67 µM) | 8 µg/mL (≈ 7.67 µM) | 0.015 µg/mL (≈ 0.0144 µM) | 32 µg/mL (≈ 30.7 µM) | 0.06 µg/mL (≈ 0.0575 µM) | 0.25 µg/mL (≈ 0.24 µM) | 0.03 µg/mL (≈ 0.0288 µM) | 32 µg/mL (≈ 30.7 µM) | > 32 µg/mL | 0.06 µg/mL (≈ 0.0575 µM) | 78% | 32 µg/mL (≈ 30.7 µM) | 4 µg/mL (≈ 3.83 µM) | < 0.008 µg/mL |
| CCCC(=O)O[C@H]1[C@H](C)O[C@@H](O[C@H]2[C@H](N(C)C)[C@@H](O)[C@H](O[C@H]3[C@@H](CC=O)C[C@@H](C)[C@@H](O)/C=C/C=C/C[C@@H](C)OC(=O)C[C@@H](O)[C@@H]3OC)O[C@@H]2C)C[C@@]1(C)OC(=O)CC [ROKITAMYCIN] | 1 µg/mL (≈ 1.21 µM) | 1 µg/mL (≈ 1.21 µM) | 8 µg/mL (≈ 9.66 µM) | 8 µg/mL (≈ 9.66 µM) | 0.06 µg/mL (≈ 0.0725 µM) | > 128 µg/mL | 0.06 µg/mL (≈ 0.0725 µM) | 0.13 µg/mL (≈ 0.157 µM) | 0.06 µg/mL (≈ 0.0725 µM) | > 128 µg/mL | > 128 µg/mL | 0.13 µg/mL (≈ 0.157 µM) |  | > 128 µg/mL | 2 µg/mL (≈ 2.42 µM) | 0.03 µg/mL (≈ 0.0362 µM) |
| CCC(=O)O[C@@H]1CC(=O)O[C@@H](C/C=C/c2ccc3ccccc3c2)CCCN(C)C[C@H](O)[C@H](C)C[C@H](CC=O)[C@H](O[C@@H]2O[C@H](C)[C@@H](O[C@H]3C[C@@](C)(O)[C@@H](OC(=O)CC)[C@H](C)O3)[C@H](N(C)C)[C@H]2O)[C@H]1OC | 8 µg/mL (≈ 8.12 µM) | 8 µg/mL (≈ 8.12 µM) | 16 µg/mL (≈ 16.2 µM) | 16 µg/mL (≈ 16.2 µM) | 0.13 µg/mL (≈ 0.132 µM) | 32 µg/mL (≈ 32.5 µM) | 0.25 µg/mL (≈ 0.254 µM) | 0.5 µg/mL (≈ 0.507 µM) | 0.13 µg/mL (≈ 0.132 µM) | 32 µg/mL (≈ 32.5 µM) | 32 µg/mL (≈ 32.5 µM) | 1 µg/mL (≈ 1.01 µM) |  | 32 µg/mL (≈ 32.5 µM) | 8 µg/mL (≈ 8.12 µM) | 0.06 µg/mL (≈ 0.0609 µM) |
